Measurements: patent publication US11897880B2, “7,8-dihydrobenzo[e]pyrido[3,4-c]azocine-2,5(3H,6H)-dione derivatives useful as a factor XIa inhibitors” (Janssen Pharmaceutica NV, priority 2021, dated 2024)
Like-named read-outs stand apart in the source and are kept apart here.

Assays:
[1] = target: Factor XIa (Homo sapiens, UniProt P03951); test: Factor XIa inhibition assay utilizing a fluorophore-quencher pair peptide substrate (FLINT); assay type: biochemical; details: for IC50: read-out: FXIa IC50; for Ki: read-out: FXIa Ki
Sequence of Factor XIa (P03951 388-625 limits assumed): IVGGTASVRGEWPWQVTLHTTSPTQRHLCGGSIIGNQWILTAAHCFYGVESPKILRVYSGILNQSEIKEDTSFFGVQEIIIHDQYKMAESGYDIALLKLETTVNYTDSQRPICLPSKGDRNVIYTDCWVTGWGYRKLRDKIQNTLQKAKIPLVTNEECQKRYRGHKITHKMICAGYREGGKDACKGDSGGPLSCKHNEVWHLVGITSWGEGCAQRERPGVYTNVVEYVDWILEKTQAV
Sequence of Factor XIa (P03951 19-387 partner limits assumed): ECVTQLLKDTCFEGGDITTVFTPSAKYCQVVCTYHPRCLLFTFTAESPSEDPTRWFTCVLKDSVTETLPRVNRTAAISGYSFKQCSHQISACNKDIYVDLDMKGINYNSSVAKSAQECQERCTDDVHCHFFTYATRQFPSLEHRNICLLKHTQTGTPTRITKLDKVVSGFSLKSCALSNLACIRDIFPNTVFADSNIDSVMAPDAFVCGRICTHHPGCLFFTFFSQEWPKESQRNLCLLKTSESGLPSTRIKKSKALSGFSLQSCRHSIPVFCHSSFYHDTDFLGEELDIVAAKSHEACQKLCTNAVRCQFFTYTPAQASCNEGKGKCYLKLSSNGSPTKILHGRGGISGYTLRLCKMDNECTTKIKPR
Text: Biological Example 1: Factor XIa Inhibition Assay Utilizing a Fluorophore-Quencher Pair Peptide Substrate
A fluorescence intensity (FLINT) based assay was used to monitor inhibition of Factor XIa. The peptide substrate, 5Fam-KLTRAETV-K5Tamra (purchased from New England Peptide) was chosen based on the FXI sequence. Conversion of zymogen FXI to its activated form, FXIa, occurs by proteolytic cleavage by […] at two sites, Arg146 and Arg180. The custom peptide used in this assay was based on the Arg146 cleavage site of FXI. The peptide substrate was designed with a fluorophore-quencher pair, where the fluorescence is quenched until FXIa cleaves the 8-mer peptide after the Arg residue.
The Factor XIa FLINT assay was used with the following 5Fam-KLTRAETV-K5Tamra assay buffer: 50 mM Tris, pH 7.5, 100 mM NaCl, 5 mM CaCl2), 0.1 mg/mL BSA, 0.03% CHAPS. Assay buffer was prepared by mixing all ingredients fresh. 5Fam-KLTRAETV-K5Tamra peptide substrate was first prepared at 10 mM in 100% DMSO, then diluted to 3 mM in 100% DMSO. Assay buffer was then added directly to the 3 mM stock of substrate to prepare the 30 μM 2× working concentration (15 μM final concentration). The 2× Factor XIa stock solution was prepared by diluting 6.562 μM stock in 1× assay buffer for a […].
Test compound(s) were run in an 11-point, 3-fold serial dilution with a final top compound concentration of 100 nM. Final DMSO in assay was 2%. FXIa was preincubated with compound for 30-minutes and then substrate was added to initiate the reaction. The assay was run with kinetic (KIN) reads at 5 min intervals over 30 minutes. The time course was linear using […] FXIa greater than 30 minutes. More specifically, the assay was run as follows: • 100 nL of 0.01 mM test compound was dispensed into black 384-well non-binding Greiner BioOne 784900 plate for 0.1 μM final concentration; • 5 μL of 1× assay buffer was dispensed to column 24 (low control) and 5 μL 2× Factor XIa solution was dispensed to columns 1-23 (column 23 high control); • the plate was centrifuged with a “cover” plate at 500 rpm for 1 min • the plate was pre-incubated for 30 minutes at room temperature with plate covered; • 5 μL of 2×5Fam-KLTRAETV-K5Tamra peptide substrate was dispensed into the entire plate, columns 1-24; • the plate was centrifuged with a “cover” plate at 500 rpm for 1 min; • the plate was read monitoring fluorescence intensity on the BMG PHERAStar at room temperature, using fluorescence module 485 nm/520 nm.
Percent inhibition (IC50) curves were generated per compound tested, and data was analyzed using a 4-parameter logistic fit using GeneData Screener. The relative fluorescence unit (RFU) values were normalized to percent inhibition using the following equation: % inhibition=((HC−LC)−(compound−LC)/(HC−LC))*100
where LC−low control=mean signal of no Factor XIa or 100% inhibition of Factor XIa; HC−high control=mean signal of Factor XIa+5Fam-KLTRAETV-K5Tamra peptide substrate with DMSO only.
An 11-point dose response curve for the test compound(s) was generated using GENDATA to determine IC50 value based on the following equation: Y=Bottom+(Top−Bottom)/(1+10^((log IC50−X)*HillSlope))
where Y is the % inhibition in the presence of X inhibitor concentration, Top=high control=mean signal of Factor XIa+5Fam-KLTRAETV-K5Tamra peptide substrate with DMSO only; Bottom=low control−mean signal of no Factor XIa or 100% inhibition of Factor XIa; HillSlope−Hill coefficient; and IC50=concentration of compound with 50% inhibition in relation to top/high control.
(§1) Representative compounds of formula (I) of the present invention were tested according to the procedure described in Biological Example 1 and Biological Example 2 above, with results as listed in Table 3, below.

[2] = target: human plasma kallikrein (Homo sapiens, UniProt P03952); test: Kallikrein inhibition assay utilizing a quenched AMC peptide substrate (FLINT); assay type: biochemical; details: 30 min preincubation, 50 μM Z-Gly-Pro-Arg-AMC, 2 nM kallikrein
Sequence of human plasma kallikrein (P03952 391-638 limits assumed): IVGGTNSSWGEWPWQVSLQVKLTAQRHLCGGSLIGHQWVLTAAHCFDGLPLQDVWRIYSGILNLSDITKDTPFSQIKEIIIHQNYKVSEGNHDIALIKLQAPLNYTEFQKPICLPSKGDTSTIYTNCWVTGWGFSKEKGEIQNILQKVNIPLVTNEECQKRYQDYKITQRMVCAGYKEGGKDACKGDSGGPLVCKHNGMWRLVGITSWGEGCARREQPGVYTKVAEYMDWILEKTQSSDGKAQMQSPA
Sequence of human plasma kallikrein (P03952 20-390 partner limits assumed): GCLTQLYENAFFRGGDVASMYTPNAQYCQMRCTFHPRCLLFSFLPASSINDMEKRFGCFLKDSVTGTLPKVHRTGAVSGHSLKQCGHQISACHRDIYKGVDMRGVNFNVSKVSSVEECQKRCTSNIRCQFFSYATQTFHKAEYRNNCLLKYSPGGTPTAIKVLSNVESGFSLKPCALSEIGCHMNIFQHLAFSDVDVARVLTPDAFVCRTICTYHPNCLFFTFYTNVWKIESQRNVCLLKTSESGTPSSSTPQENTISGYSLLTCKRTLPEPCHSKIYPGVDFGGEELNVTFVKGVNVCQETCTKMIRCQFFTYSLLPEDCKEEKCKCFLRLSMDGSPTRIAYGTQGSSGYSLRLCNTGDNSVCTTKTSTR
Text: Biological Example 2: Kallikrein Inhibition Assay Utilizing a Quenched AMC Peptide Substrate
A fluorescence intensity (FLINT) based assay was used to monitor inhibition of human plasma kallikrein. The peptide substrate, Z-Gly-Pro-Arg-AMC (Purchased from Bachem; Catalog #1-1150) was chosen based on its relatively low KM for kallikrein which enables running the assay at lower substrate concentrations to control background fluorescence.
The Kallikrein FLINT assay was used with the following Z-Gly-Pro-Arg-AMC assay buffer: 50 mM Tris, pH 7.5, 100 mM NaCl, 5 mM CaCl2), 0.1 mg/mL BSA, 0.03% CHAPS. Assay buffer was prepared by mixing all ingredients fresh. 2× Z-Gly-Pro-Arg-AMC peptide substrate was prepared by diluting 10 mM stock into 1× assay buffer for a 100 μM working concentration (50 μM final concentration). The 2× kallikrein stock solution was prepared by diluting 14.76 μM stock in 1× assay buffer for a 4 nM working stock solution (2 nM final concentration).
Test compound(s) were run in an 11-point, 3-fold serial dilution with a final top compound concentration of 1 μM. Final DMSO in assay was 2%. Plasma kallikrein was pre-incubated for 30-minute with compound and then 50 μM substrate was added to initiate the reaction. The assay was run with kinetic (KIN) reads at 5 min intervals over 30 minutes. The time course was linear using 2 nM kallikrein greater than 30 minutes. More specifically, the assay was run as follows: • 100 nL of 0.1 mM test compound was dispensed into black 384-well non-binding Greiner BioOne 784900 plate for 1 μM final concentration; • 5 μL of 1× assay buffer was dispensed to columns 24 (low control) and 5 μL 2× human kallikrein enzyme solution was dispensed to columns 1-23 (column 23 high control); • the plate was centrifuged with a “cover” plate at 500 rpm for 1 min • the plate was pre-incubated for 30 minutes at room temperature with plate covered; • 5 μL of 2× Z-Gly-Pro-Arg-AMC peptide substrate was dispensed into the entire plate, columns 1-24; • the plate was centrifuged with a “cover” plate at 500 rpm for 1 min; the plate was read monitoring fluorescence intensity on the BMG PHERAStar at room temperature, using fluorescence module 340 nm/440 nm.
Percent inhibition (IC50) curves were generated per compound tested, and data was analyzed using a 4-parameter logistic fit using GeneData Screener. The relative fluorescence unit (RFU) values were normalized to percent inhibition using the following equation: % inhibition=((HC−LC)−(compound−LC)/(HC−LC))*100 where LC—low control=mean signal of human kallikrein enzyme or 100% inhibition of human kallikrein enzyme; HC—high control=mean signal of […]+Z-Gly-Pro-Arg-AMC peptide substrate with DMSO only.
An 11-point dose response curve for the test compound(s) was generated using GENDATA to determine IC50 value based on the following equation: Y=Bottom+(Top−Bottom)/(1+10^((log IC50−X)*HillSlope)) • where Y is the % inhibition in the presence of X inhibitor concentration, Top=high control=mean signal of human kallikrein enzyme+Z-Gly-Pro-Arg-AMC peptide substrate with DMSO only; Bottom=low control−mean signal of no human kallikrein enzyme or 100% inhibition of human kallikrein enzyme; HillSlope—Hill coefficient; and IC50=concentration of compound with 50% inhibition in relation to top/high control.
as §1

[3] = cells that print μM themselves in the nM column, same assay conditions
[4] = 30 min preincubation, 5Fam-KLTRAETV-K5Tamra substrate 15 μM final, kinetic reads
[5] = cells that print μM themselves in the nM column

IC50 [1, 3] | Ki [1] | IC50 [2] | IC50 [1, 4] | Ki [1, 5] | Compound
1.16 µM | 0.578 µM | > 10 µM |  |  | Cn1cc(-c2cnc(C(CC3CC3)n3cc4c(cc3=O)-c3c(ccc(Cl)c3F)CC3(CC3)NC4=O)[nH]2)ccc1=O (single isomer, unassigned) [Compound 63, (S*)-11-chloro-3-(2-cyclopropyl-1-(5-(1-methyl-6-oxo-1,6-dihydropyridin-3-yl)-1H-imidazol-2-yl)ethyl)-12-fluoro-3H-spiro[benzo[e]pyrido[3,4-c]azocine-7,1′-cyclopropan]-2,5(6H,8H)-dione]
 | 0.0186 µM | 1.62 µM | 0.0372 µM |  | Nc1ccc(-c2cnc(C3CCc4c5c(cc(=O)n43)-c3c(ccc(Cl)c3F)-c3ccccc3NC5=O)[nH]2)c(F)n1 (single isomer, unassigned) [Compound 38, (R*)-3-(5-(6-amino-2-fluoropyridin-3-yl)-1H-imidazol-2-yl)-8-chloro-7-fluoro-2,3-dihydrodibenzo[5,6:7,8]azocino[4,3-g]indolizine-5,16(1H,15H)-dione]
 | 0.0066 µM | 0.82 µM | 0.0132 µM |  | O=C1NC2(CC2)Cc2ccc(Cl)c(F)c2-c2cc(=O)n3c(c21)CC[C@@H]3c1ncc(-c2ccn3cnnc3c2)[nH]1 (stereo in doubt) [Compound 18, (R*)-12-(5-([1,2,4]triazolo[4,3-a]pyridin-7-yl)-1H-imidazol-2-yl)-7-chloro-8-fluoro-13,14-dihydro-2H-spiro[benzo[5,6]azocino[4,3-g]indolizine-3,1′-cyclopropane]-1,10(4H,12H)-dione]
 | 0.13 µM | > 10 µM | 0.26 µM |  | COCCN1C(=O)c2c(cc(=O)n3c2CC[C@H]3c2ncc(-c3ccc(N)nc3F)[nH]2)-c2c(ccc(Cl)c2F)CC12CC2 (stereo in doubt) [Compound 25, (S*)-12-(5-(6-amino-2-fluoropyridin-3-yl)-1H-imidazol-2-yl)-7-chloro-8-fluoro-2-(2-methoxyethyl)-13,14-dihydro-2H-spiro[benzo[5,6]azocino[4,3-g]indolizine-3,1′-cyclopropane]-1,10(4H,12H)-dione]
 | 0.0346 µM | > 10 µM | 0.0692 µM |  | Nc1ccc(-c2cnc([C@H]3CCc4c5c(cc(=O)n43)-c3c(ccc(Cl)c3F)CC3(CC3)N(CCO)C5=O)[nH]2)c(F)n1 (single isomer, unassigned) [Compound 12, (R*)-12-(5-(6-amino-2-fluoropyridin-3-yl)-1H-imidazol-2-yl)-7-chloro-8-fluoro-2-(2-hydroxyethyl)-13,14-dihydro-2H-spiro[benzo[5,6]azocino[4,3-g]indolizine-3,1′-cyclopropane]-1,10(4H,12H)-dione]
6.58 µM |  | > 10 µM |  | 3.29 µM | Nc1ccc(-c2cnc([C@@H]3CCc4c5c(cc(=O)n43)-c3c(ccc(Cl)c3F)CC3(CC3)N(CCO)C5=O)[nH]2)c(F)n1 (single isomer, unassigned) [Compound 9, (S*)-12-(5-(6-amino-2-fluoropyridin-3-yl)-1H-imidazol-2-yl)-7-chloro-8-fluoro-2-(2-hydroxyethyl)-13,14-dihydro-2H-spiro[benzo[5,6]azocino[4,3-g]indolizine-3,1′-cyclopropane]-1,10(4H,12H)-dione]
> 10 µM |  | > 10 µM |  | > 5 µM | Cn1ncc(-c2cnc(C(CC3CC3)n3cc4c(cc3=O)-c3c(ccc(Cl)c3F)CC3(CC3)NC4=O)[nH]2)cc1=O (single isomer, unassigned) [Compound 58, (R*)-11-chloro-3-(2-cyclopropyl-1-(5-(1-methyl-6-oxo-1,6-dihydropyridazin-4-yl)-1H-imidazol-2-yl)ethyl)-12-fluoro-3H-spiro[benzo[e]pyrido[3,4-c]azocine-7,1′-cyclopropane]-2,5(6H,8H)-dione]
 | 0.0009 µM | 0.47 µM | 0.0019 µM |  | O=C1NC2(CC2)Cc2ccc(Cl)c(F)c2-c2cc(=O)n3c(c21)CC[C@@H]3c1ncc(-c2ccn3ccnc3c2)[nH]1 (stereo in doubt) [Compound 8, (R*)-7-chloro-8-fluoro-12-(5-(imidazo[1,2-a]pyridin-7-yl)-1H-imidazol-2-yl)-13,14-dihydro-2H-spiro[benzo[5,6]azocino[4,3-g]indolizine-3,1′-cyclopropane]-1,10(4H,12H)-dione]
 | 0.0479 µM | > 10 µM | 0.0959 µM |  | Nc1ccc(-c2cnc([C@H]3CCc4c5c(cc(=O)n43)-c3c(ccc(Cl)c3F)CC3(CC3)NC5=O)[nH]2)c(Cl)n1 (stereo in doubt) [Compound 53, (R*)-12-(5-(6-amino-2-chloropyridin-3-yl)-1H-imidazol-2-yl)-7-chloro-8-fluoro-13,14-dihydro-2H-spiro[benzo[5,6]azocino[4,3-g]indolizine-3,1′-cyclopropane]-1,10(4H,12H)-dione]
